Assay results: patent US20260226076A1, “FUSED MULTICYCLIC COMPOUNDS AND THEIR USE AS PARP1 INHIBITORS” (LAEKNA THERAPEUTICS SHANGHAI CO., LTD., priority 2022, published 2026)
Where two headings read alike, the source gives them in different places.

Tests used:
[1] = Tumor/plasma ratio study in MDA-MB-436 tumor-bearing mouse; assay type: in vivo; settings: female NOD-SCID mice with MDA-MB-436 tumors, dosed 28 days; for concentration at 24 h: LC-MS/MS; for Kp at 24 h: tumor/plasma, 24 hours after the last dose
Procedure: 1×10^7 MDA-MB-436 cells were implanted subcutaneously onto the flank of female NOD-SCID mice (aged 6-8 weeks weighing approximately 18-22 g). When tumors reached approximately 150-180 mm3, the mice were randomly assigned to treatment groups. The mice were continuously dosed with the Compounds for 28 days. On day 29, blood (50 μL) and tumor tissue samples were collected at 24 hours after the last dose. The collected blood samples were then centrifuged at 4600 rpm for 5 minutes at 4° C. to obtain plasma. To determine compound levels in plasma samples, each plasma sample was prepared using an appropriate dilution factor and compared against an 11-point standard calibration curve (1-5,000 ng/mL) prepared in DMSO and spiked into blank plasma. Acetonitrile (200 μL) was added with internal standard into 20 μL plasma samples, followed by centrifugation at 5,500 rpm for 10 minutes. Supernatant (150 μL) was then diluted in water (150 μL) and analyzed via LC-MS/MS. Tumor tissue samples were weighed, and then homogenized with 80% methanol at a ratio of 1:5 or 1:10 (tumor weight in grams to methanol volume in milliliters). Acetonitrile (300 μL) was added with internal standard into 30 μL tumor homogenates sample. The samples were vortexed for 30 s and then centrifuged at 5,500 rpm for 10 min at 4° C. The supernatant (150 μL) was transferred to 96-well plate and diluted with water (150 μL) and analyzed via LC-MS/MS. If a sample concentration in initial assay was not covered in the range of a given standard curve, proper dilution and concentration procedures were used in repeated testing.

MDA-MB-436 cells = test: Cell proliferation assay (MDA-MB-436); assay type: cell-based; settings: Homo sapiens, MDA-MB-436, 168 h, at least 7 days, Cell-Titer Glo, read-out: MDA-MB-436 anti-proliferation assay
Procedure: (§1) For PARPi sensitivity, exponentially growing MDA-MB-436 and DLD1 BRCA2^−/− cells were seed in 96 or 384-well plates at very low density with the goal of not splitting for at least 7 days (typically 0.3k-1.2k cells/well). Cells were plated on […] and treated with DMSO or increasing concentrations of PARP1 inhibitors on Day 0. At the end of the experiment, cell viability was estimated using Cell-Titer Glo (Promega).

PARP2 = PARP2 (Homo sapiens, UniProt Q9UGN5); test: PARP2-FL displacement assay; assay type: binding; settings: 20 nM PARP2, 3 nM PARPi-FL, 4 hours incubation, fluorescence polarization
Sequence of PARP2 (Q9UGN5 whole entry): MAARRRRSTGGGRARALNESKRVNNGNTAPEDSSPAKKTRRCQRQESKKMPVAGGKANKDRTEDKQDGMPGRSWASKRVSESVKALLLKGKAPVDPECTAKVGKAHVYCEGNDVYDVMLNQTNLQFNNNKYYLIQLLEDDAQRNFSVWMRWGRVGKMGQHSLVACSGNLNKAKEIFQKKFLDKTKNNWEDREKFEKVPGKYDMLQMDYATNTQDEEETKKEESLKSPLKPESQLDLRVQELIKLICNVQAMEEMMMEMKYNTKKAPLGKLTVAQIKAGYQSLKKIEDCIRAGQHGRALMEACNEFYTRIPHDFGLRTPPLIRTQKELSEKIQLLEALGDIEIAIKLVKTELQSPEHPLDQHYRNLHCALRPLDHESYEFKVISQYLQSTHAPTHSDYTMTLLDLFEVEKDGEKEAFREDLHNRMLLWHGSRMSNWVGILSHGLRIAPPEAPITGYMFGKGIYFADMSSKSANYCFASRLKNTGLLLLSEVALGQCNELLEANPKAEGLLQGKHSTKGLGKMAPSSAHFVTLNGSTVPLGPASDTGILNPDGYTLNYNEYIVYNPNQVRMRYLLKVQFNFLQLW
Procedure: A potent PARP inhibitor (PARPi-FL, Cat No. 6461, Tocris Bioscience) conjugated to BDY FL fluorophore was adopted to characterize the activity of PARP2 by measuring the displacement of binding of PARPi-FL to PARP2. Compounds to be tested were prepared at a concentration of 1-10 mM, and made a 3-fold serial dilution by 100% DMSO in a polypropylene plate (Bio-One small volume microplate, black, Cat No. 784076, Greiner). 100 nL of test compounds were dispensed into a 384-well polypropylene microplate and added 10 μL of reaction solution including premixed 20 nM PARP2 and 3 nM PARPi-FL. After 4 hours of incubation at room temperature, the fluorescence polarization signal at 480/30 nm excitation and 530/30 nm dual emission was measured by VICTOR Nivo® multimode plate reader (PerkinElmer). All of the measured IC50 values were calculated using four parameters dose-response inhibition model in GraphPad Prism 8.0.2 (La Jolla, California, USA, www.graphpad.com).

PARP1 = PARP1 (Homo sapiens, UniProt P09874); test: PARP1-DNA enzymatic trapping assay; assay type: biochemical; settings: 10 nM PARP1, 5 nM DNA probe, 2 mM NAD+, fluorescence polarization read at 30 minutes
Sequence of PARP1 (P09874 whole entry): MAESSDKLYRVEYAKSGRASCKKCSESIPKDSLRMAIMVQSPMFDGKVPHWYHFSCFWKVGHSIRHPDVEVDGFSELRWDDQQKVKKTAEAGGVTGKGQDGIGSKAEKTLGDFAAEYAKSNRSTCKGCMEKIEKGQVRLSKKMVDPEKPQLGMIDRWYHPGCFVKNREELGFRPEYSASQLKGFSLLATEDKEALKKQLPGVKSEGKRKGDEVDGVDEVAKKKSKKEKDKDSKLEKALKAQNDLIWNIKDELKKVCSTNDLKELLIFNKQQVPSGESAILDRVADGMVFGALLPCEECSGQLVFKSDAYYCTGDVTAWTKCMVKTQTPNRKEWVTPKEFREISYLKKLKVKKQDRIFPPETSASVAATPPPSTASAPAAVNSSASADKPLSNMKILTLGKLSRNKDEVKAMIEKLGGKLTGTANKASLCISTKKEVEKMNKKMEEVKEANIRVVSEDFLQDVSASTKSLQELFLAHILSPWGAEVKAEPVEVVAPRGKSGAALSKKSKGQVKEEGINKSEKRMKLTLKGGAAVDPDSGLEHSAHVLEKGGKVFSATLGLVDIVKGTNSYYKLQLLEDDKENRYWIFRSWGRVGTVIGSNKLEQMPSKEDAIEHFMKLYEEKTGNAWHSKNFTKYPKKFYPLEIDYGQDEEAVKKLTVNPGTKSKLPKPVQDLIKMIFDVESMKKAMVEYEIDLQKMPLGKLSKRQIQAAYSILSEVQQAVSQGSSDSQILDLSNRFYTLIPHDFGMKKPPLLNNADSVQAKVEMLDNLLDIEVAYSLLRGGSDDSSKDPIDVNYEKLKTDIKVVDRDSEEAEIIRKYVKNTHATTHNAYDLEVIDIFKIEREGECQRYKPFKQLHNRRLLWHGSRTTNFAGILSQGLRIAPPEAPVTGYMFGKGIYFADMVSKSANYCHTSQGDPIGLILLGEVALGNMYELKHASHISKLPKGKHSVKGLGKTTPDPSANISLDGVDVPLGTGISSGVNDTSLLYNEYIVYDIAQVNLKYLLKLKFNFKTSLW
Procedure: Enzymatic trapping assay is to measure the dissociation process of PARP1 from fluorescein-labeled DNA during the enzymatic activity. Assay was conducted at a total 10 μL of reaction volume, including 10 nM PARP1 and 5 nM DNA probe in the binding buffer (50 mM Tris-HCl pH 8.0, 50 mM NaCl, 1 mM MgCl2, 0.1 mM EDTA, and 0.01% IGEPAL), and was commenced by adding a final concentration of 2 mM NAD+ substrate.
PARP1 Poly-ADP ribosylation (PARylation) inhibitory assay was conducted with compounds dissolved in DMSO at a starting concentration of 5 μM. Dissolved compounds were added to 384-well microplate and premixed with PARPI enzyme and DNA probe for 20 minutes incubation. Enzymatic reactions were started by adding NAD+ to mixture, and each well was read at 30 minutes by microplate reader (VICTOR Nivo®, PerkinElmer) to detect the fluorescence polarization signal at 480 nm excitation/530 nm dual emission.
All measured IC50 values were calculated using four parameters dose-response inhibition model in GraphPad Prism 8.0.2 (La Jolla, California, USA, www.graphpad.com).

DLD1 BRCA2−/− cells = test: Cell proliferation assay (DLD1 BRCA2−/−); assay type: cell-based; settings: Homo sapiens, DLD-1, 168 h, at least 7 days, Cell-Titer Glo, read-out: DLD1 BRCA2−/− anti-proliferation assay
Procedure: as §1

[2] = tumor tissue 24 hours after the last dose, read-out: Tumor
[3] = plasma, sample 24 hours after the last dose, read-out: Plasma

Row | Structure (SMILES) | concentration at 24 h [1, 2] [ng/g] | concentration at 24 h [1, 3] [ng/mL] | Kp at 24 h [1] | IC50 (MDA-MB-436 cells) [nM] | IC50 (PARP2) [nM] | IC50 (PARP1) [nM] | IC50 (DLD1 BRCA2−/− cells) [nM]
1 | CCc1cc2ncc(CN3CCN(c4ccc(C(=O)NC)nc4)CC3)cc2[nH]c1=O [AZD5305, reference compound] | 249 | 584 | 0.4 |  |  |  | 
2 | O=C(NC1COC1)c1ccc(N2C[C@H]3CN(Cc4cnc5c6c(c(=O)[nH]c5c4)CCC6)C[C@@H]3C2)c(F)n1 [Compound 52] | 121 | 4.3 | 28 | 0.44 | 3310 | 7.41 | 1.44
3 | CO[C@H]1C[C@@H](NC(=O)c2ccc(N3C[C@H]4CN(Cc5cnc6c7c(c(=O)[nH]c6c5)COCC7)C[C@@H]4C3)c(F)n2)C1 [Compound 73] | 206 | 3.2 | 64 | 0.27 | 1040 | 8.29 | 1.09
4 | CNC(=O)c1ccc(N2C[C@H]3CN(Cc4cnc5c6c(c(=O)[nH]c5c4)CCCC6)C[C@@H]3C2)c(F)n1 [Compound 82] |  |  |  | 1.38 | 185 | 13.1 | 0.55
5 | O=C(NC1COC1)c1ccc(N2C[C@H]3CN(Cc4cnc5c6c(c(=O)[nH]c5c4)CCCC6)C[C@@H]3C2)c(F)n1 [Compound 83] |  |  |  | 0.54 | 147 | 7.66 | 0.54
6 | O=C(N[C@H]1CCOC1)c1ccc(N2C[C@H]3CN(Cc4ccc5c6c(c(=O)[nH]c5c4)COCC6)C[C@@H]3C2)c(F)n1 [Compound 85] |  |  |  | 1.05 | 811 | 8.15 | 1.1
7 | O=C(N[C@@H]1CCOC1)c1ccc(N2C[C@H]3CN(Cc4ccc5c6c(c(=O)[nH]c5c4)COCC6)C[C@@H]3C2)c(F)n1 [Compound 86] |  |  |  | 2.25 | 2370 | 11.7 | 1.37
8 | O=C(NC1COC1)c1ccc(N2C[C@H]3CN(Cc4ccc5c6c(c(=O)[nH]c5c4)CCC6)C[C@@H]3C2)c(F)n1 [Compound 87] | 244 | 22 | 11 | 0.66 | 1200 | 5.73 | 0.62
